Laboratory results: ChEMBL document CHEMBL5055666, “Tyrosine-Derived Novel Benzoxazine Active in a Rat Syngenic Mammary Tumor Model of Breast Cancer” (J Med Chem, 2021)
Active and inactive are the calls of the source. The calls are words filed in the database; no cut-off is given here.

Legend:
LA7 [1] = assay: Antiproliferative activity against rat LA7 cells assessed as inhibition of cell growth incubated for 48 hrs by MTT assay; assay type: functional, cell-based; conditions: LA7, 48 h
MCF-10A [2] = assay: Antiproliferative activity against human MCF-10A cells assessed as inhibition of cell growth incubated for 24 hrs by MTT assay; assay type: cell-based
MDA-MB-231 [3] = assay: Antiproliferative activity against human MDA-MB-231 cells assessed as inhibition of cell growth incubated for 24 hrs by MTT assay; assay type: functional, cell-based; conditions: MDA-MB-231, 24 h
LA7 [4] = assay: Antiproliferative activity against rat LA7 cells assessed as inhibition of cell growth incubated for 24 hrs by MTT assay; assay type: functional, cell-based; conditions: LA7, 24 h
LA7 [5] = assay: Antiproliferative activity against rat LA7 cells assessed as inhibition of cell growth incubated for 72 hrs by MTT assay; assay type: functional, cell-based; conditions: LA7, 72 h
MDA-MB-231 [6] = assay: Induction of cell damage in human MDA-MB-231 cells assessed as increase in LDH release at 0.125 to 100 uM; assay type: functional, cell-based; conditions: dose 0.125-100 µM
[7] = Drug release in tris buffer pH 7.4 after 10 min by membrane dialysis method; assay type: physicochemical; conditions: pH 7.4, 10 min
MCF7 [8] = assay: Disruption of mitochondrial membrane integrity in human MCF7 cells assessed as reduction in mitochondrial membrane potential at 0.125 to 1 uM by JC-1 staining based flow cytometry analysis; assay type: functional, cell-based; conditions: dose 0.125-1 µM
Rattus norvegicus [9] = assay: Toxicity in Sprague-Dawley rat inoculated with rat LA7 cells assessed as mortality at 5 to 20 mg/kg administered daily for 21 days; assay type: organism-based; conditions: la7, 504 h, dose 5-20 mg/kg, time 21 day
[10] = Mean residence time in Sprague-Dawley rat at 0.5 mg/kg, iv measured upto 24 hrs; assay type: ADME, organism-based; conditions: in vivo
Rattus norvegicus [11] = assay: Toxicity in Sprague-Dawley rat inoculated with rat LA7 cells assessed as change in organ weight at 5 to 20 mg/kg administered daily for 21 days; assay type: organism-based; conditions: la7, 504 h, dose 5-20 mg/kg, time 21 day
MCF7 [12] = assay: Induction of apoptosis in human MCF7 cells assessed as nuclear condensation after 24 hrs by DAPI staining based fluorescent microscopic analysis; assay type: functional, cell-based; conditions: dose 0.125-1 µM
MDA-MB-231 [13] = assay: Induction of apoptosis in human MDA-MB-231 cells assessed as increase in total apoptotic population at 0.125 to 1 uM after 24 to 48 hrs by Annexin V-FITC/propidium iodide staining based flow cytometric analysis; assay type: functional, cell-based; conditions: dose 0.125-1 µM, time 24-48 hrs
[14] = Mean residence time in Sprague-Dawley rat at 5 mg/kg, po measured upto 24 hrs; assay type: ADME, organism-based; conditions: in vivo
LA7 [15] = assay: Antitumor activity against rat LA7 cells inoculated in Sprague-Dawley rat assessed as reduction in formation of neoplastic lesions in lungs at 5 to 20 mg/kg administered daily for 21 days; assay type: functional, organism-based; conditions: dose 5-20 mg/kg, time 21.0 day
[16] = Cmax in Sprague-Dawley rat at 5 mg/kg, po measured upto 24 hrs; assay type: ADME, organism-based; parameters: time < 24 hrs, dose 5 mg/kg, route po; conditions: in vivo
[17] = Apparent oral clearance in Sprague-Dawley rat at 5 mg/kg, po measured upto 24 hrs; assay type: ADME, organism-based; conditions: in vivo
MCF7 [18] = assay: Antiproliferative activity against human MCF7 cells assessed as inhibition of cell growth incubated for 48 hrs by MTT assay; assay type: functional, cell-based; conditions: MCF7, 48 h
MDA-MB-231 [19] = assay: Induction of apoptosis in human MDA-MB-231 cells assessed as nuclear condensation after 24 hrs by DAPI staining based fluorescent microscopic analysis; assay type: functional, cell-based; conditions: dose 0.125-1 µM
[20] = Apparent oral volume of distribution in Sprague-Dawley rat at 5 mg/kg, po measured upto 24 hrs; assay type: ADME, organism-based; conditions: in vivo
[21] = Apparent oral volume of distribution in Sprague-Dawley rat at 0.5 mg/kg, iv measured upto 24 hrs; assay type: ADME, organism-based; conditions: in vivo
LA7 [22] = assay: Antitumor activity against rat LA7 cells inoculated in Sprague-Dawley rat assessed as inhibition of tumor growth at 5 to 20 mg/kg administered daily for 21 days; assay type: functional, organism-based; conditions: dose 5-20 mg/kg, time 21.0 day
[23] = Apparent oral clearance in Sprague-Dawley rat at 0.5 mg/kg, iv measured upto 24 hrs; assay type: ADME, organism-based; conditions: in vivo
[24] = Tmax in Sprague-Dawley rat at 0.5 mg/kg, iv measured upto 24 hrs; assay type: ADME, organism-based; conditions: in vivo
MCF-10A [25] = assay: Antiproliferative activity against human MCF-10A cells assessed as inhibition of cell growth incubated for 72 hrs by MTT assay; assay type: cell-based
MDA-MB-231 [26] = assay: Induction of intracellular ROS generation in human MDA-MB-231 cells at 0.125 to 1 uM incubated for 24 hrs by DCFH-DA staining-based flow cytometric analysis; assay type: functional, cell-based; conditions: dose 0.125-1 µM
[27] = AUC(0 to infinity) in Sprague-Dawley rat at 5 mg/kg, po measured upto 24 hrs; assay type: ADME, organism-based; parameters: dose 5 mg/kg, time < 24 hrs, route po; conditions: in vivo
MDA-MB-231 [28] = assay: Antiproliferative activity against human MDA-MB-231 cells assessed as inhibition of cell growth incubated for 48 hrs by MTT assay; assay type: functional, cell-based; conditions: MDA-MB-231, 48 h
[29] = Half life in Sprague-Dawley rat at 5 mg/kg, po measured upto 24 hrs; assay type: ADME, organism-based; conditions: in vivo
MDA-MB-231 [30] = assay: Disruption of mitochondrial membrane integrity in human MDA-MB-231 cells assessed as reduction in mitochondrial membrane potential at 0.125 to 1 uM by JC-1 staining based flow cytometry analysis; assay type: functional, cell-based; conditions: dose 0.125-1 µM
MCF7 [31] = assay: Induction of intracellular ROS generation in human MCF7 cells at 0.125 to 1 uM incubated for 24 hrs by DCFH-DA staining-based flow cytometric analysis; assay type: functional, cell-based; conditions: dose 0.125-1 µM
[32] = Induction of cell damage in human HEK293 cells assessed as increase in LDH release at > 20 uM; assay type: cell-based; conditions: hek293, 20 µM
MCF7 [33] = assay: Induction of apoptosis in human MCF7 cells assessed as nuclear blabbing after 24 hrs by DAPI staining based fluorescent microscopic analysis; assay type: functional, cell-based; conditions: dose 0.125-1 µM
MCF7 [34] = assay: Induction of cell cycle arrest in human MCF7 cells assessed as increase in sub-diploid population at 0.125 to 1 uM after 24 to 48 hrs by propidium iodide staining based flow cytometric analysis; assay type: functional; conditions: dose 0.125-1 µM, time 24-48 hrs
[35] = Tmax in Sprague-Dawley rat at 5 mg/kg, po measured upto 24 hrs; assay type: ADME, organism-based; conditions: in vivo
[36] = Cmax in Sprague-Dawley rat at 0.5 mg/kg, iv measured upto 24 hrs; assay type: ADME, organism-based; parameters: time < 24 hrs, dose 0.5 mg/kg, route iv; conditions: in vivo
[37] = AUC(0 to infinity) in Sprague-Dawley rat at 0.5 mg/kg, iv measured upto 24 hrs; assay type: ADME, organism-based; parameters: time < 24 hrs, dose 0.5 mg/kg, route iv; conditions: in vivo
MCF7 [38] = assay: Downregulation of ERalpha expression in human MCF7 cells after 24 hrs by immunoblot analysis; assay type: functional, cell-based
MDA-MB-231 [39] = assay: Induction of cell cycle arrest in human MDA-MB-231 cells assessed as increase in sub-diploid population at 0.125 to 1 uM after 24 to 48 hrs by propidium iodide staining based flow cytometric analysis; assay type: functional; conditions: dose 0.125-1 µM, time 24-48 hrs
MCF7 [40] = assay: Antiproliferative activity against human MCF7 cells assessed as inhibition of cell growth incubated for 72 hrs by MTT assay; assay type: functional, cell-based; conditions: MCF7, 72 h
MDA-MB-231 [41] = assay: Antiproliferative activity against human MDA-MB-231 cells assessed as inhibition of cell growth incubated for 72 hrs by MTT assay; assay type: functional, cell-based; conditions: MDA-MB-231, 72 h
MDA-MB-231 [42] = assay: Induction of apoptosis in human MDA-MB-231 cells assessed as nuclear blabbing after 24 hrs by DAPI staining based fluorescent microscopic analysis; assay type: functional, cell-based; conditions: dose 0.125-1 µM
[43] = Half life in Sprague-Dawley rat at 0.5 mg/kg, iv measured upto 24 hrs; assay type: ADME, organism-based; conditions: in vivo
MCF7 [44] = assay: Upregulation of ERbeta expression in human MCF7 cells after 24 hrs by immunoblot analysis; assay type: functional, cell-based; conditions: dose 500-5 µM
MCF7 [45] = assay: Induction of apoptosis in human MCF7 cells assessed as increase in total apoptotic population at 0.125 to 1 uM after 24 to 48 hrs by Annexin V-FITC/propidium iodide staining based flow cytometric analysis; assay type: functional, cell-based; conditions: dose 0.125-1 µM, time 24-48 hrs
MCF7 [46] = assay: Induction of cell damage in human MCF7 cells assessed as increase in LDH release at 0.125 to 100 uM; assay type: functional, cell-based; conditions: dose 0.125-100 µM
MCF7 [47] = assay: Antiproliferative activity against human MCF7 cells assessed as inhibition of cell growth incubated for 24 hrs by MTT assay; assay type: functional, cell-based; conditions: MCF7, 24 h
Rattus norvegicus [48] = assay: Toxicity in Sprague-Dawley rat inoculated with rat LA7 cells assessed as increase in uterine tissue at 5 to 20 mg/kg administered daily for 21 days; assay type: organism-based; conditions: la7, 504 h, dose 5-20 mg/kg, time 21 day

## COc1ccc(C[C@H]2COc3ccccc3N2Cc2ccc(OCCN3CCCC3)cc2)cc1
LA7 [1]
  IC50: 240 nM
MCF-10A [2]
  IC50: > 25000 nM
MDA-MB-231 [3]
  IC50: 650 nM
LA7 [4]
  IC50: 660 nM
LA7 [5]
  IC50: 190 nM
MDA-MB-231 [6]
  Activity: Active
[7]
  Drug transport: 90%
MCF7 [8]
  Activity: Active
Rattus norvegicus [9]
  Activity: Non-Toxic
[10]
  MRT: 4.66 h
Rattus norvegicus [11]
  Activity: Non-Toxic
MCF7 [12]
  Activity: Dose-dependent effect
MDA-MB-231 [13]
  Activity: Active
[14]
  MRT: 16.1 h
LA7 [15]
  Activity: Active
[16]
  Cmax: 43.2 ng/mL
[17]
  CL/F: 176 mL/min/kg
MCF7 [18]
  IC50: 300 nM
MDA-MB-231 [19]
  Activity: Dose-dependent effect
[20]
  Vd/F: 140 L/kg
[21]
  Vd/F: 19.9 L/kg
LA7 [22]
  Activity: Active
[23]
  CL/F: 68.8 mL/min/kg
[24]
  Tmax: 0.83 h
MCF-10A [25]
  IC50: > 18000 nM
MDA-MB-231 [26]
  Activity: Active
[27]
  AUC(0-inf): 506 ng·h/mL
MDA-MB-231 [28]
  IC50: 700 nM
[29]
  half-life: 8.97 h
MDA-MB-231 [30]
  Activity: Active
MCF7 [31]
  Activity: Active
[32]
  Activity: Toxic
MCF7 [33]
  Activity: Dose-dependent effect
MCF7 [34]
  Activity: Dose-dependent effect
[35]
  Tmax: 0.25 h
[36]
  Cmax: 49.6 ng/mL
[37]
  AUC(0-inf): 124 ng·h/mL
MCF7 [38]
  Activity: Dose-dependent effect
MDA-MB-231 [39]
  Activity: Dose-dependent effect
MCF7 [40]
  IC50: 250 nM
MDA-MB-231 [41]
  IC50: 700 nM
MDA-MB-231 [42]
  Activity: Dose-dependent effect
[43]
  half-life: 3.42 h
MCF7 [44]
  Activity: Dose-dependent effect
MCF7 [45]
  Activity: Active
MCF7 [46]
  Activity: Active
MCF7 [47]
  IC50: 200 nM
Rattus norvegicus [48]
  Activity: Non-Toxic
